Data as given in patent publication US7078400B2, “20-HETE synthase inhibitor” (Taisho Pharmaceutical Co., Ltd., priority 1999, dated 2006).
pIC50: −log10 of the molar value.

How the values were obtained:
[1] = tested on: 20-HETE synthase originated from rat kidney microsome; experiment: Inhibitory effect of 20-HETE synthase originated from rat kidney microsome; format: biochemical; settings: for Inhibition rate (1 μM): 20-HETE production without compound set to 100%
Experimental: Experimental Example [Inhibitory effect of 20-HETE synthase originated from rat kidney microsome]
Regarding the compounds listed in Table 1, their inhibitory activity to production of 20-HETE was examined.
The subject compound for this examination was added to a buffer comprising 50 mM of 3-morpholinopropane sulfonic acid (pH7.4), 5 mM of magnesium chloride and 1 mM of ethylenediaminetetraacetic acid (EDTA) disodium salt.
After that, the rat kidney microsome (microsome fraction prepared from the kidney of a spontaneous hypertension rat (male, 6 weeks of age)) as an enzyme, [5,6,8,9,11,12,14,15] tritium-arachidonic acid (supplied by Amasham) as a substrate, and NADPH (supplied by Sigma) as a coenzyme were added and reacted for 1.5 hours at 37° C.
After the reaction, formic acid was added to stop the reaction, and then acetonitrile (final concentration of 50%) was added and left for 1.5 hours at room temperature.
The activity of 20-HETE synthase was measured by using a high performance liquid chromatograph having a detector for radioactive substances (supplied by Gilson), and equipped with a C18 reversed phase column (Biocyl C18, supplied by Bio-rad).

[2] = 1 μM of the subject compound added, rat kidney microsome
[3] = 1 μM of subject compound, rat kidney microsome
[4] = concentration at which 20-HETE production was inhibited to 50%, rat kidney microsome
[5] = concentration at which production of 20-HETE was inhibited to 50%
[6] = concentration at which production of 20-HETE was inhibited to 50%, rat kidney microsome

| melting point | pIC50 [1, 4] | pIC50 [1, 5] | pIC50 [1, 6] | Compound | Inhibition rate (1 μM) [1, 2] | Inhibition rate (1 μM) [1, 3] | Inhibition rate (1 μM) ([1]; 1 μM of the subject compound) |
| --- | --- | --- | --- | --- | --- | --- | --- |
| 138 to 139.5 °C (dec.) | – | – | – | COc1cccc(C(F)(F)F)c1N/C=N/O [Comp. 125] | 67.6 | – | – |
| 171 °C | – | – | – | O/N=C/Nc1c(Br)cccc1Br [Comp. 33] | 91.9 | – | – |
| 167 to 167.5 °C | 8.80 | – | – | COc1ccc(COc2ccc(N/C=N/O)cc2)cc1 [Comp. 389] | – | 105.5 | – |
| 125 to 126.5 °C | – | 8.72 | – | O/N=C/Nc1ccc(SCc2ccco2)cc1 [Comp. 448] | – | – | 109.8 |
| 123 to 124 °C | – | – | 6.77 | Cc1ccc(F)c(N/C=N/O)c1 [Comp. 43] | – | – | – |
| 155 to 156.5 °C | – | – | 6.69 | COc1ccc(Cl)cc1N/C=N/O [Comp. 26] | 86.0 | – | – |
| 142.5 to 144.5 °C | – | – | – | O/N=C/Nc1ccc(Cl)cc1F [Comp. 25] | 87.0 | – | – |
| 207 to 207.5 °C | 7.25 | – | – | Cc1cc(NC(=O)c2ccccc2)c(Cl)cc1N/C=N/O [Comp. 276] | – | 71.8 | – |
| 122.5 to 124 °C | – | – | 7.92 | CCCCCc1ccc(N/C=N/O)cc1 [Comp. 7] | 110.5 | – | – |
| 167.5 to 168 °C | 5.23 | – | – | O/N=C/Nc1ccc(Br)c2ccccc12 [Comp. 235] | – | 77.8 | – |
| 100.5 to 102 °C | – | – | 6.45 | O/N=C/Nc1cccc(C(F)(F)F)c1 [Comp. 46] | 48.5 | – | – |
| 182.5 to 183 °C | 5.39 | – | – | O=C(c1ccccc1)c1ccc(N/C=N/O)cc1 [Comp. 239] | – | – | – |
| 161 to 161.5 °C | – | – | 7.31 | Cc1cc(Br)ccc1N/C=N/O [Comp. 41] | 96.6 | – | – |
| 155.5 to 156.5 °C | – | – | 7.59 | O/N=C/Nc1ccc(F)cc1F [Comp. 50] | – | – | – |
| 144 to 146 °C | 7.62 | – | – | CC(C)Oc1ccc(N/C=N/O)cc1 [Comp. 316] | – | 97.9 | – |
| 177 to 177.5 °C | – | 8.38 | – | O=C1CCCN1CCCOc1ccc(N/C=N/O)cc1 [Comp. 408] | – | – | 103.0 |
| 163 to 164 °C | 9.05 | – | – | CSc1ccc(COc2ccc(N/C=N/O)cc2)cc1 [Comp. 387] | – | 97.8 | – |
| 168 to 169 °C | – | – | – | Cc1cc(C)c(N/C=N/O)c(C)c1 [Comp. 72] | 99.2 | – | – |
| 145 to 146 °C | – | – | 8.09 | CCCOC(=O)c1ccc(N/C=N/O)cc1 [Comp. 44] | – | – | – |
| 113 to 115 °C | – | 7.32 | – | O/N=C/Nc1ccc(OCCCCCN2CCCCC2)cc1 [Comp. 431] | – | – | – |
| 104 to 106 °C | 8.68 | – | – | CCSCCOc1ccc(N/C=N/O)cc1 [Comp. 361] | – | 106 | – |
| 194 to 195 °C | 7.80 | – | – | N#Cc1ccc(-c2ccc(N/C=N/O)cc2)cc1 [Comp. 229] | – | 99.3 | – |
| 95 to 96 °C | – | 7.73 | – | CN(C)CCCCCCOc1ccc(N/C=N/O)cc1 [Comp. 402] | – | – | 118.8 |
| 153 to 154.5 °C | – | 8.41 | – | O/N=C/Nc1ccc(OCC2CCCCO2)cc1 (stereo not shown) [Comp. 421] | – | – | 113.3 |
| 122 to 124 °C | 8.62 | – | – | C=CCCOc1ccc(N/C=N/O)cc1 [Comp. 330] | – | 118.8 | – |
| 122.5 to 124 °C | – | – | – | O/N=C/Nc1cc(C(F)(F)F)cc(C(F)(F)F)c1 [Comp. 49] | 46.7 | – | – |
| 169.5 to 170 °C | 6.82 | – | – | OCc1ccc(N/C=N/O)cc1 [Comp. 209] | – | 102.2 | – |
| 112 °C | – | – | – | CN(C)CCSc1ccc(N/C=N/O)cc1 [Comp. 445] | – | – | 95.1 |
